The text below walks through data of patent publication US10882866B1, “Spiro[3H-indole-3,2′-pyrrolidin]-2(1H)-one compounds and derivatives as MDM2-P53 inhibitors” (Boehringer Ingelheim International GmbH, priority 2015, dated 2021).

Assay [1] concerns the target GST-MDM2 protein (aa 23-117) / biotinylated p53 wt peptide (p53-MDM2 interaction) (Homo sapiens (Human), UniProt Q00987). As to the kind of experiment: Mdm2-p53 Inhibition AlphaScreen. Format: binding. The note with it: 20 nM GST-MDM2 (aa 23-117), 20 nM biotinylated p53 wt peptide. The procedure: Mdm2-p53 Inhibition AlphaScreen
15 μL of compound in 20% DMSO (serial pre-dilutions of compound are done in 100% DMSO) is pipetted to the wells of a white OptiPlate-96 (PerkinElmer). A mix consisting of 20 nM GST-MDM2 protein (aa 23-117) and 20 nM biotinylated p53 wt peptide (encompassing aa 16-27 of wt human p53, amino acid sequence […]-Ttds-Lys-Biotin, molecular weight 2132.56 g/mol) is prepared in assay buffer (50 mM Tris/HCl pH 7.2; 120 mM NaCl; 0.1% bovine serum albumin (BSA); 5 mM dithiothreitol (DTT); 1 mM ethylenediaminetetraacetic acid (EDTA); 0.01% Tween 20). 30 μL of the mix is added to the compound dilutions and incubated for 15 min at rt while gently shaking the plate at 300 rounds per minute (rpm). Subsequently, 15 μL of premixed AlphaLISA Glutathione Acceptor Beads and AlphaScreen Streptavidin Donor Beads from PerkinElmer (in assay buffer at a concentration of 10 μg/mL each) are added and the samples are incubated for 30 min at rt in the dark (shaking 300 rpm). Afterwards, the signal is measured in a PerkinElmer Envision HTS Multilabel Reader using the AlphaScreen protocol from PerkinElmer.
Each plate contains negative controls where biotinylated p53-peptide and GST-MDM2 are left out and replaced by assay buffer. Negative control values are entered as low basis value when using the software GraphPad Prism for calculations. […]
On the technique in general: Alpha assays give light when donor and acceptor beads are brought close together.

In assay [2] the test system is human prostate tumor xenograft models harboring p53 wild-type. The note with it: cited from earlier work.
In assay [3] the test system is human acute myeloid leukemia (AML) xenograft models harboring p53 wild-type. The note with it: cited from earlier work.

Sequence of GST-MDM2 protein (aa 23-117) / biotinylated p53 wt peptide (p53-MDM2 interaction) (Q00987 23-117): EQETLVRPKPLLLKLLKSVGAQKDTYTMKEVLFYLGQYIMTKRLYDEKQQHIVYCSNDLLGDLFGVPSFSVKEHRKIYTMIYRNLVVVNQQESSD

A word on the IC50: it is the concentration that gives 50% inhibition. A low value points to greater potency in that assay. In assay [1], `COc1cc2c(cc1C(N)=O)nc1n2CC[C@H]2[C@@H]1[C@H](c1cccc(Cl)c1F)[C@]1(C(=O)Nc3cc(Cl)ccc31)N2CC1CC1` [Ib-234] had an IC50 of 2 nM. That is a single-digit nanomolar value.

On to `CCOc1cc(C(C)(C)C)ccc1C1=N[C@@](C)(c2ccc(Cl)cc2)[C@@](C)(c2ccc(Cl)cc2)N1C(=O)N1CCN(CCCS(C)(=O)=O)CC1` [RG7112], for which the “antiproliferative and proapoptotic activity” value in assay [2] was “antiproliferative and proapoptotic activity of RG7112 has been observed”; in assay [3] it was “antiproliferative and proapoptotic activity of RG7112 has been observed”.
